The target in the test is T1, human mAChR M4 (Homo sapiens, UniProt P08173).
T1 construct: expressed in transfected cells
T1 sequence (P08173 1-479): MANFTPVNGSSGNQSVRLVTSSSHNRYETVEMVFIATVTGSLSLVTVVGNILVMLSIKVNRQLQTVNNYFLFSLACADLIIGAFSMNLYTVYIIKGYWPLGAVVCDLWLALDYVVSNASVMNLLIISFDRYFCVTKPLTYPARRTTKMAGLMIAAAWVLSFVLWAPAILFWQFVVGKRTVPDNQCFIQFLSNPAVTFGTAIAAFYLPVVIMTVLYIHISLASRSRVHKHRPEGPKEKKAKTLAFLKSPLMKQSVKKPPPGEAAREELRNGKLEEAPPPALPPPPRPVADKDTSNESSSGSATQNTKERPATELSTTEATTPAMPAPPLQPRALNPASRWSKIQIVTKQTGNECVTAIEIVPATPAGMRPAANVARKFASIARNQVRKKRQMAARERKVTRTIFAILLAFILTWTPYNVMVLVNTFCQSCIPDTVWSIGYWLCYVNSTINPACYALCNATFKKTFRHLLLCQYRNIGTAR
Kind of test: mAChR M4 cell-based functional assay (calcium mobilization, CHO-K1 hM4-Gqi5 cells). The note with it: for Emax at 30 µM: CHO-K1, % ACh maximum at 30 μM, human M4; for EC50: positive allosteric modulator activity, increase in the EC20 acetylcholine response, CHO-K1 hM4-Gqi5 cells, read-out: Human M4 EC50. The method, boiled down: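 Fluorescent calcium read-out (Fluo-4 AM, FDSS, 1 Hz) in hM4-Gqi5 CHO-K1 cells, 11-point 1:3 compound series. Agonism scored on compound addition, PAM activity as increase of the 144 s EC20 acetylcholine response, antagonism as decrease of the 230 s EC80 response; four-parameter logistic fits give EC50 and Emax.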
(In general: A change in cytosolic calcium serves as a functional read-out for many receptors and channels.)

Regarding `[2H]C([2H])(NC(=O)c1cc(C)c(N2CCc3ncc(N4CCCn5nccc54)cc3C2)nn1)c1cscn1` [Example 508, 6-(3-(6,7-dihydropyrazolo[1,5-a]pyrimidin-4(5H)-yl)-7,8-dihydro-1,6-naphthyridin-6(5H)-yl)-5-methyl-N-(thiazol-4-ylmethyl-d2)pyridazine-3-carboxamide], the maximal response (Emax) (usually the maximal effect, on the per cent scale that the assay sets) at 30 µM came out at 82% and the EC50 (usually the concentration at which the effect is half-maximal) was 13 nM.
For `Cc1cc(C(=O)NCc2ccc(S(C)(=O)=O)cc2)cnc1N1CCc2ncccc2C1` [compound 143, 6-(7,8-dihydro-5H-1,6-naphthyridin-6-yl)-5-methyl-N-[(4-methylsulfonylphenyl)methyl] pyridine-3-carboxamide], in that order: 53% and 5830 nM.
As for `[2H]C([2H])(NC(=O)c1cc(C)c(N2CCc3ncc(C(F)(F)F)cc3C2)nn1)c1cscn1` [Example 507, 5-methyl-N-(thiazol-4-ylmethyl-d2)-6-(3-(trifluoromethyl)-7,8-dihydro-1,6-naphthyridin-6(5H)-yl)pyridazine-3-carboxamide], the maximal response (Emax) at 30 µM is 81% and the EC50 turned out to be 43 nM.
The corresponding values for `Cc1cc(C(=O)N2CC(Cl)C2)nnc1N1CCc2ncc(N3CCCn4nccc43)cc2C1` [Example 527, (3-chloroazetidin-1-yl)(6-(3-(6,7-dihydropyrazolo[1,5-a]pyrimidin-4(5H)-yl)-7,8-dihydro-1,6-naphthyridin-6(5H)-yl)-5-methylpyridazin-3-yl)methanone] are 129% and 16 nM.
For `Cc1cc(C(=O)N2CC(C(F)F)C2)nnc1N1CCc2ncc(C(F)(F)F)cc2C1` [Example 522, (3-(difluoromethyl)azetidin-1-yl)(5-methyl-6-(3-(trifluoromethyl)-7,8-dihydro-1,6-naphthyridin-6(5H)-yl)pyridazin-3-yl)methanone], in that order: 109% and 168 nM.
The corresponding values for `Cc1nc(Cl)c(C)c(N2CCc3ncc(-c4cnn(C5CCC5)c4)cc3C2)n1` [compound 195, 6-(6-chloro-2,5-dimethyl-pyrimidin-4-yl)-3-(1-cyclobutylpyrazol-4-yl)-7,8-dihydro-5H-1,6-naphthyridine] are 80% and 611 nM.
Regarding `Cc1c(C#N)nnc(N2Cc3cc(C(F)(F)F)cnc3CC2C)c1C` (stereo not shown) [Example 367, 4,5-dimethyl-6-(7-methyl-3-(trifluoromethyl)-7,8-dihydro-1,6-naphthyridin-6(5H)-yl)pyridazine-3-carbonitrile], the maximal effect (Emax) at 30 µM stood at 89% and the EC50 was 209 nM.
For `Cc1cc(C#N)cnc1N1CCc2ncc(-c3cnn(C4CC4)c3)cc2C1` [compound 96, 6-[3-(1-cyclopropylpyrazol-4-yl)-7,8-dihydro-5H-1,6-naphthyridin-6-yl]-5-methyl-pyridine-3-carbonitrile], in that order: 95% and 302 nM.
For `Cc1nn(C)cc1-c1cnc2c(c1)CN(c1nc(N3CCN(C)CC3)nc(C)c1C)CC2` [compound 275, 3-(1,3-dimethyl-1/-pyrazol-4-yl)-6-(5,6-dimethyl-2-(4-methylpiperazin-1-yl)pyrimidin-4-yl)-5,6,7,8-tetrahydro-1,6-naphthyridine], in that order: 86% and 981 nM.
The corresponding values for `Cc1nc(Cl)c(C)c(N2CCc3ncc(-c4cn(C)nc4C)cc3C2)n1` [compound 192, 6-(6-chloro-2,5-dimethyl-pyrimidin-4-yl)-3-(1,3-dimethylpyrazol-4-yl)-7,8-dihydro-5H-1,6-naphthyridine] are 90% and 169 nM.
As to `Cc1nn(C)c(C)c1-c1cnc2c(c1)CN(c1nnc(C#N)c(C)c1C)CC2` [Example 296, 4,5-dimethyl-6-(3-(1,3,5-trimethyl-1H-pyrazol-4-yl)-7,8-dihydro-1,6-naphthyridin-6(5H)-yl)pyridazine-3-carbonitrile], the Emax at 30 µM was determined as 101% and the EC50 was found to be 191 nM.
The corresponding values for `Cc1cc(C#N)nnc1N1CCc2ncc(C(F)(F)F)cc2C1` [Example 304, 5-methyl-6-(3-(trifluoromethyl)-7,8-dihydro-1,6-naphthyridin-6(5H)-yl)pyridazine-3-carbonitrile] are 93% and 676 nM.
The corresponding values for `Cc1cc(C#N)nnc1N1CCc2ncc(N3CCO[C@H](C)C3)cc2C1` [Example 397, (R)-5-methyl-6-(3-(2-methylmorpholino)-7,8-dihydro-1,6-naphthyridin-6(5H)-yl)pyridazine-3-carbonitrile] are 72% and 441 nM.
As for `Cc1c(Cl)nc(C(F)(F)F)nc1N1CCc2ncc(N3CCCn4nccc43)cc2C1` [compound 248, 6-(6-chloro-5-methyl-2-(trifluoromethyl)pyrimidin-4-yl)-3-(6,7-dihydropyrazolo[1,5-a]pyrimidin-4(5H)-yl)-5,6,7,8-tetrahydro-1,6-naphthyridine], the maximum response (Emax) at 30 µM turned out to be 88% and the EC50 was found to be 300 nM.
Turning to `COc1nc(C)nc(N2CCc3ncc(-c4cn(C)nc4C)cc3C2)c1C` [compound 196, 3-(1,3-dimethylpyrazol-4-yl)-6-(6-methoxy-2,5-dimethyl-pyrimidin-4-yl)-7,8-dihydro-5H-1,6-naphthyridine], the Emax at 30 µM turned out to be 70% and the 50% effective concentration (EC50) was determined as 1170 nM.
The corresponding values for `Cc1cc(C(=O)N2CCCC2(C)C)nnc1N1CCc2ncc(N3CCCn4nccc43)cc2C1` [Example 529, (6-(3-(6,7-dihydropyrazolo[1,5-a]pyrimidin-4(5H)-yl)-7,8-dihydro-1,6-naphthyridin-6(5/I)-yl)-5-methylpyridazin-3-yl)(2,2-dimethylpyrrolidin-1-yl)methanone] are 68% and 570 nM.
For `Cc1nn(C)cc1-c1cnc2c(c1)CN(c1nnc(C#N)c(C)c1C)CC2` [compound 295, 6-(3-(1,3-dimethyl-1H-pyrazol-4-yl)-7,8-dihydro-1,6-naphthyridin-6(5H)-yl)-4,5-dimethylpyridazine-3-carbonitrile], in that order: 95% and 485 nM.
For `Cc1cc(C#N)cnc1N1CCc2ncc(Oc3ccc(F)cc3F)cc2C1` [Example 310, 6-(3-(2,4-difluorophenoxy)-7,8-dihydro-1,6-naphthyridin-6(5H)-yl)-5-methylnicotinonitrile], in that order: 90% and 600 nM.
On to `O=C(NCc1cncs1)c1ccc(N2CCc3ncc(C(F)(F)F)cc3C2)nn1` [Example 510, N-(thiazol-5-ylmethyl)-6-(3-(trifluoromethyl)-7,8-dihydro-1,6-naphthyridin-6(5H)-yl)pyridazine-3-carboxamide], for which the Emax at 30 µM amounted to 81% and the EC50 was determined as 855 nM.
The corresponding values for `Cc1cc(C(=O)NCc2cncc(Br)c2)cnc1N1CCc2ncccc2C1` [compound 139, N-[(5-bromo-3-pyridyl)methyl]-6-(7,8-dihydro-5H-1,6-naphthyridin-6-yl)-5-methyl-pyridine-3-carboxamide] are 70% and 1360 nM.

The values are drawn from US20250230155A1 (Vanderbilt University, priority 2021, published 2025).
